Measurements from patent US20220218878A1, “CONTROLLED HEAT DELIVERY COMPOSITIONS” (BAMBU VAULT LLC, priority 2019, published 2022).

What was measured:
[1] = Surfactant effect on tetrakis aminium dye retention and particle size during emulsification; assay type: physicochemical; settings: emulsion and evaporation process; emulsifier as labelled
Procedure: The preparation of the aqueous phase: under the stirring with an IKA Ultra-Turrax® T 25 homogenizer at 8000 RPM, 1.2 g of sodium dodecyl sulfate (SDS) was added into 190 g of 4.9% aqueous polyvinyl alcohol (PVA) solution placed in a round bottom flask. An aqueous solution of SDS containing 4.9% PVA was formed after the dissolution of SDS (the aqueous phase).
The preparation of the organic phase: to 88 g of dichloromethane was added 8.0 g of DSM NeoCryl® B-805 polymer (MMA/BMA copolymer), 1.82 g of Epolight™ 1117 dye, and 0.65 g of Cyanox® 1790 in 88 g to allow the formation of a clear solution of B805 polymer and dyes (the polymer: dye weight ratio=4.4:1).
The organic phase (polymer and dyes dissolved in dichloromethane) was injected directly into the aqueous phase (PVA solution with SDS surfactant) at the tip of the Turrax's roto-stator (i.e. directly into the flow being sheared by the roto-stator). The shear mixing at 8000 RPM was continued for 30 minutes. The resulting mixture was decanted into an open-mouth container and stirred magnetically for 16 hours. A solid suspension of particles containing IR dye was obtained. […]
Particle Size and Distribution for the particle heaters The particle size and size distribution of the NIR dye/MMA/BMA copolymer particles were measured by a Horiba LA-950 Particle Size Analyzer in distilled water with pH 7.4 (FIG. 3). […]

[2] = Screening of acrylic polymer carriers and additives for particle performance; assay type: physicochemical; settings: additive within the particles
Excerpt: Various commercially available acrylic polymers were screened for preferred particle performance characteristic such as particle size distribution, IR dye stability and encapsulation efficiency.
The loading of dyes within the particles is as high as possible without degrading the cohesion of the polymer. The additives that stabilize the dye within the particles have been studied.

| Epolight™ 1117 retention in the particles [1] | impact on dye stability [2] | SMILES |
| --- | --- | --- |
| 50% |  | CCCCCCCCCCCCCOC(=O)CC(C(=O)OCCCCCCCCCCCCC)S(=O)(=O)O.[Na] (stereo not drawn) [Aerosol® TR-70, sodium bis(tridecyl) sulfosuccinate] |
|  | positive impact on dye stability | Cc1cc(C(C)(C)C)c(O)c(C)c1Cn1c(=O)n(Cc2c(C)cc(C(C)(C)C)c(O)c2C)c(=O)n(Cc2c(C)cc(C(C)(C)C)c(O)c2C)c1=O [Cyanox® 1790, 1,3,5-tris(4-tert-butyl-3-hydroxy-2,6-dimethylbenzyl)-1,3,5-triazine-2,4,6-(1H,3H,5H)-trione] |
| 85-90% |  | CCCCCCCCCCCCOS(=O)(=O)[O-].[Na+] [Sodium dodecyl sulfate, sodium dodecyl sulfate] |
